Results reported in patent US8828988B2 (Tetraphase Pharmaceuticals, Inc., priority 2009, dated 2014).
Values after ≈ are worked out from the molar mass of the structure shown. Like-named read-outs stand apart in the source and are kept apart here.

Tests used:
[1] = system: E. coli DH10B(pBAD-tetM), expressing tet(M); assay: MIC against recombinant E. coli expressing tet(M); assay type: cell-based; settings: for MIC: Escherichia coli; for Ratio (TetM induced / Uninduced): ratio of MICs; for Effect of expression of (tet)M on activity: result in words
Text: (§1) Constructs were transformed into E. coli DH10B for expression. Recombinant strains were pre-induced under optimized conditions with L-arabinose prior to use as inocula in CLSI standardized MIC assays.

[2] = system: E. coli DH10B(pBAD-tetK), expressing tet(K); assay: MIC against recombinant E. coli expressing tet(K); assay type: cell-based; settings: for MIC: Escherichia coli; for MIC ratio, TetK induced to uninduced: ratio of TetK induced to uninduced MIC; for Effect of expression of (tet)K on activity: result in words
Text: as §1

[3] = system: E. coli S30 extract system, coupled in vitro transcription/translation, firefly luciferase readout; assay: In vitro transcription/translation (TnT) assay; assay type: biochemical; settings: for IC50, in vitro transcription/translation system: E. coli S30 extract, luciferase readout
[4] = system: Enterococcus faecalis EF103, ATCC 29212; assay: MIC assay, EF103; assay type: cell-based; settings: Enterococcus faecalis, ATCC29212; Table 8; read-out: MIC E. faecalis ATCC 29212
[5] = system: Escherichia coli EC107, ATCC 25922; assay: MIC assay, EC107; assay type: cell-based; settings: ATCC25922, Table 8, read-out: MIC E. coli ATCC 25922
[6] = system: Staphylococcus aureus SA101, ATCC 29213, MSSA; assay: MIC assay, SA101; assay type: cell-based
[7] = system: Escherichia coli EC155, tetracycline-resistant, tet(A); assay: MIC assay, EC155; assay type: cell-based
[8] = system: Staphylococcus aureus SA158, tetracycline-resistant tet(K); assay: MIC assay, SA158; assay type: cell-based; settings: Table 8, read-out: MIC S. aureus tetK
[9] = system: Streptococcus pneumoniae SP106, ATCC 49619; assay: MIC assay, SP106; assay type: cell-based
[10] = system: Streptococcus pneumoniae SP160, tetracycline-resistant, tet(M); assay: MIC assay, SP160; assay type: cell-based; settings: Table 8, read-out: MIC S. pneumoniae tetM
[11] = system: Staphylococcus aureus SA161, HA-MRSA, tetracycline-resistant, tet(M); assay: MIC assay, SA161; assay type: cell-based; settings: Table 8, read-out: MIC S. aureus MRSA, tetM
[12] = system: Enterococcus faecalis EF159, tetracycline-resistant, tet(M); assay: MIC assay, EF159; assay type: cell-based
[13] = system: S. aureus clinical isolates; assay: MIC50, MIC90 and MIC range, panel of clinical isolates (Example 20); assay type: cell-based; settings: MRSA, 30 isolates; in µg/mL
Protocol: (§2) The assays were run as follows.
(§3) Both values, as well as the MIC range (the lowest and highest MIC value observed for a collection of organisms), were determined for the isolates listed in Table 3.

[14] = system: E. faecalis clinical isolates; assay: as above; assay type: cell-based; settings: 24 isolates, in µg/mL
Protocol: as §2, §3

[15] = system: S. pneumoniae clinical isolates; assay: as above; assay type: cell-based; settings: 19 isolates, in µg/mL
Protocol: as §2, §3

[16] = system: S. aureus ATCC 13709 (Smith); assay: Mouse systemic infection model, S. aureus septicemia; settings: mouse septicemia, S. aureus ATCC 13709, intravenous treatment one hour post-challenge, survival after 48 hours
[17] = system: S. aureus strains collected from various geographical sources; assay: MIC50 and MIC90 analysis (Example 22)
Protocol: (§4) Frozen bacterial strains were thawed and subcultured onto Mueller Hinton Broth (MHB) or other appropriate media (Streptococcus requires blood and Haemophilus requires hemin and NAD). Following incubation overnight, the strains were subcultured onto Mueller Hinton Agar and again incubated overnight. […] Isolated colonies were selected to prepare a starting inoculum equivalent to a 0.5 McFarland standard. […] Antibiotics (stored frozen, thawed and used within 3 hours of thawing) and compounds were further diluted to the desired working concentrations.
(§5) The assays were run as follows. Fifty μL of MHB was added to wells 2-12 of a 96-well plate. One hundred μL of appropriately diluted antibiotic or compound was added to well 1. Fifty μL of antibiotics or compound was removed from well 1 and added to well 2 and the contents of well 2 mixed by pipetting up and down five times. Fifty μL of the mixture in well 2 was removed and added to well 3 and mixed as above. Serial dilutions were continued in the same manner through well 12. Fifty μL was removed from well 12 so that all contained 50 μL. Fifty μL of the working inoculum was then added to all test wells. A growth control well was prepared by adding 50 μL of working inoculum and 50 μL of MHB to an empty well. The plates were then incubated at 37° C. overnight, removed from the incubator and each well was read on a plate reading mirror. The lowest concentration (MIC) of test compound that inhibited the growth of the bacteria was recorded.
(§6) MIC, MIC50 and MIC90 values were determined according to CLSI methodology. S. pneumoniae and H. influenzae isolates were obtained from Eurofins-Medinet and are recent clinical isolates. S. aureus strains were collected from various geographical sources.

[18] = system: H. influenzae isolates (Eurofins-Medinet, recent clinical isolates); assay: MIC50 and MIC90 analysis (Example 22)
Protocol: as §4, §5, §6

E. coli ATCC 25922 = assay: Mouse systemic infection model, E. coli septicemia; settings: mouse septicemia, E. coli ATCC 25922, treatment one hour post-challenge, survival after 48 hours
[19] = system: Staphylococcus aureus SA100, ATCC 13709, MSSA, Smith strain; assay: MIC assay, SA100; assay type: cell-based; settings: Table 12, read-out: MIC S. aureus ATCC 13709
[20] = Table 8, read-out: MIC S. aureus ATCC 29213
[21] = Table 8, read-out: MIC E. coli tetA
[22] = ATCC49619, Table 8, read-out: MIC S. pneumoniae ATCC 49619
[23] = Table 8, read-out: MIC E. faecalis tetM

## NCC[C@H](O)C(=O)N[C@@H]1C[C@H](N)[C@@H](O[C@H]2O[C@H](CN)[C@@H](O)[C@H](O)[C@H]2O)[C@H](O)[C@H]1O[C@H]1O[C@H](CO)[C@@H](O)[C@H](N)[C@H]1O [Amikacin, amikacin, reference compound]
[1]; read-out: MIC, TetM induced
  MIC: 4 µg/mL
[1]; read-out: MIC, Uninduced
  MIC: 4 µg/mL
[1]
  Ratio (TetM induced / Uninduced): 1
  Effect of expression of (tet)M on activity: unaffected
[2]; read-out: MIC, TetK Induced
  MIC: 8 µg/mL
[2]; read-out: MIC, Uninduced
  MIC: 8 µg/mL
[2]
  MIC ratio, TetK induced to uninduced: 1
  Effect of expression of (tet)K on activity: unaffected

## CO/N=C(\C(=O)N[C@@H]1C(=O)N2C(C(=O)O)=C(CSc3nc(=O)c(=O)[nH]n3C)CS[C@H]12)c1csc(N)n1 [Ceftriaxone, ceftriaxone, reference compound]
[1]; read-out: MIC, TetM induced
  MIC: 0.125 µg/mL
[1]; read-out: MIC, Uninduced
  MIC: 0.0625 µg/mL
[1]
  Ratio (TetM induced / Uninduced): 2
  Effect of expression of (tet)M on activity: unaffected
[2]; read-out: MIC, TetK Induced
  MIC: 0.25 µg/mL
[2]; read-out: MIC, Uninduced
  MIC: 0.125 µg/mL
[2]
  MIC ratio, TetK induced to uninduced: 2
  Effect of expression of (tet)K on activity: unaffected

## CCCc1nc(Cl)c2c(c1O)C(=O)C1=C(O)[C@]3(O)C(=O)C(C(N)=O)=C(O)[C@@H](N(C)C)[C@@H]3C[C@@H]1C2 [Compound 104]
[3]
  TnT IC50: 5.3 µg/mL

## CCCNc1nc(F)c2c(c1O)C(=O)C1=C(O)[C@]3(O)C(=O)C(C(N)=O)=C(O)[C@@H](N(C)C)[C@@H]3C[C@@H]1C2 [Compound 114]
[3]
  TnT IC50: 2.8 µg/mL

## CN(C)CCCNc1nc(Cl)c2c(c1O)C(=O)C1=C(O)[C@]3(O)C(=O)C(C(N)=O)=C(O)[C@@H](N(C)C)[C@@H]3C[C@@H]1C2 [Compound 119]
[3]
  TnT IC50: 0.58 µg/mL
  IC50, in vitro transcription/translation system: sub-μg/ml

## CN(C)[C@@H]1C(O)=C(C(N)=O)C(=O)[C@@]2(O)C(O)=C3C(=O)c4c(O)c(NC(=O)CNC(C)(C)C)nc(F)c4C[C@H]3C[C@@H]12 [Compound 120]
[3]
  TnT IC50: 0.36 µg/mL
  IC50, in vitro transcription/translation system: sub-μg/ml

## CN(C)[C@@H]1C(O)=C(C(N)=O)C(=O)[C@@]2(O)C(O)=C3C(=O)c4c(O)cnc(Cl)c4C[C@H]3C[C@@H]12 [Compound 123]
[4]
  MIC: 32 µg/mL (≈ 71.1 µM)
[5]
  MIC: 2 µg/mL (≈ 4.45 µM)
[6]; [20]
  MIC: 1 µg/mL (≈ 2.22 µM)
[7]; [21]
  MIC: > 32 µg/mL
[8]
  MIC: 32 µg/mL (≈ 71.1 µM)
[9]; [22]
  MIC: 1 µg/mL (≈ 2.22 µM)
[10]
  MIC: 32 µg/mL (≈ 71.1 µM)
[11]
  MIC: 32 µg/mL (≈ 71.1 µM)
[12]; [23]
  MIC: > 32 µg/mL

## CN(C)[C@@H]1C(O)=C(C(N)=O)C(=O)[C@@]2(O)C(O)=C3C(=O)c4c(O)c(NCC(F)(F)F)nc(Cl)c4C[C@H]3C[C@@H]12 [Compound 124]
[13]
  MIC Range: 0.25-4
[14]
  MIC Range: 0.008-4
[15]
  MIC Range: <=0.016-8
[3]
  TnT IC50: >4.5 µg/mL
[1]; read-out: MIC, TetM induced
  MIC: 16 µg/mL
[1]; read-out: MIC, Uninduced
  MIC: 4 µg/mL
[1]
  Ratio (TetM induced / Uninduced): 4
[2]; read-out: MIC, TetK Induced
  MIC: 16 µg/mL
[2]; read-out: MIC, Uninduced
  MIC: 8 µg/mL
[2]
  MIC ratio, TetK induced to uninduced: 2

## CN(C)[C@@H]1C(O)=C(C(N)=O)C(=O)[C@@]2(O)C(O)=C3C(=O)c4c(O)c(N)nc(F)c4C[C@H]3C[C@@H]12 [Compound 125]
[3]
  TnT IC50: 0.93 µg/mL
  IC50, in vitro transcription/translation system: sub-μg/ml

## CN(C)[C@@H]1C(O)=C(C(N)=O)C(=O)[C@@]2(O)C(O)=C3C(=O)c4c(O)c(NC(=O)CNC(C)(C)C)nc(Cl)c4C[C@H]3C[C@@H]12 [Compound 132]
[3]
  TnT IC50: 0.78 µg/mL
  IC50, in vitro transcription/translation system: sub-μg/ml

## CCCc1nc(N(C)C)c2c(c1O)C(=O)C1=C(O)[C@]3(O)C(=O)C(C(N)=O)=C(O)[C@@H](N(C)C)[C@@H]3C[C@@H]1C2 [Compound 141]
[13]
  MIC Range: 2-4
[14]
  MIC Range: 1-8
[15]
  MIC Range: 0.25-8
[1]; read-out: MIC, TetM induced
  MIC: 32 µg/mL
[1]; read-out: MIC, Uninduced
  MIC: 32 µg/mL
[1]
  Ratio (TetM induced / Uninduced): 1
[2]; read-out: MIC, TetK Induced
  MIC: 32 µg/mL
[2]; read-out: MIC, Uninduced
  MIC: > 32 µg/mL

## CN(C)[C@@H]1C(O)=C(C(N)=O)C(=O)[C@@]2(O)C(O)=C3C(=O)c4c(O)cnc(F)c4C[C@H]3C[C@@H]12 [Compound 144]
[4]
  MIC: 4 µg/mL (≈ 9.23 µM)
[5]
  MIC: 0.25 µg/mL (≈ 0.577 µM)
[6]; [20]
  MIC: 0.031 µg/mL (≈ 0.0715 µM)
[7]; [21]
  MIC: > 32 µg/mL
[8]
  MIC: 8 µg/mL (≈ 18.5 µM)
[9]; [22]
  MIC: 0.016 µg/mL (≈ 0.0369 µM)
[10]
  MIC: 8 µg/mL (≈ 18.5 µM)
[11]
  MIC: 8 µg/mL (≈ 18.5 µM)
[12]; [23]
  MIC: 32 µg/mL (≈ 73.8 µM)

## CN(C)[C@@H]1C(O)=C(C(N)=O)C(=O)[C@@]2(O)C(O)=C3C(=O)c4c(O)c(N)nc(Cl)c4C[C@H]3C[C@@H]12 [Compound 147]
[3]
  TnT IC50: 1.1 µg/mL

## C[C@H]1COc2c(N3CCN(C)CC3)c(F)cc3c(=O)c(C(=O)O)cn1c23 [Levofloxacine, levofloxacin, reference compound]
[1]; read-out: MIC, TetM induced
  MIC: 0.0156 µg/mL
[1]; read-out: MIC, Uninduced
  MIC: 0.0156 µg/mL
[1]
  Ratio (TetM induced / Uninduced): 1
[2]; read-out: MIC, TetK Induced
  MIC: 0.0156 µg/mL
[2]; read-out: MIC, Uninduced
  MIC: 0.0156 µg/mL
[2]
  MIC ratio, TetK induced to uninduced: 1

## CN(C)[C@@H]1C(O)=C(C(N)=O)C(=O)[C@@]2(O)C(O)=C3C(=O)c4c(O)cccc4[C@@](C)(O)[C@H]3C[C@@H]12 [Tetracycline, tetracycline, reference compound]
[16]
  PD50: 0.35 mg/kg
[4]
  MIC: 8 µg/mL (≈ 18 µM)
[17]; S. aureus (n = 20)
  MIC Range: 0.06 to 32 µg/mL
[17]; Staphylococcus aureus
  MIC50: 0.13 µg/mL (≈ 0.293 µM)
  MIC90: 0.25 µg/mL (≈ 0.563 µM)
[6]; [20]
  MIC: 0.25 µg/mL (≈ 0.563 µM)
[6]; Table 9, read-out: MIC S. aureus ATCC 29213
  MIC: 0.5 µg/mL (≈ 1.13 µM)
[18]; H. influenzae (n = 12)
  MIC Range: 0.25 to 16 µg/mL
[18]; Haemophilus influenzae
  MIC50: 0.5 µg/mL (≈ 1.13 µM)
E. coli ATCC 25922
  PD50: 17.0 mg/kg
[7]; [21]
  MIC: > 64 µg/mL
[7]; Table 9, read-out: MIC E. coli EC155 (tet)A
  MIC: > 32 µg/mL
[1]; read-out: MIC, TetM induced
  MIC: > 32 µg/mL
[9]; [22]
  MIC: 0.063 µg/mL (≈ 0.142 µM)
[9]; ATCC49619, Table 9, read-out: MIC S. pneum ATCC 49619
  MIC: 0.25 µg/mL (≈ 0.563 µM)
[19]
  MIC: 0.5 µg/mL (≈ 1.13 µM)
[11]
  MIC: 64 µg/mL (≈ 144 µM)
[2]; read-out: MIC, TetK Induced
  MIC: > 32 µg/mL
[12]; [23]
  MIC: 64 µg/mL (≈ 144 µM)
[12]; Table 9, read-out: MIC E. faecalis EF159 (tet)M
  MIC: > 32 µg/mL

## CN(C)c1ccc(O)c2c1C[C@H]1C[C@H]3[C@H](N(C)C)C(O)=C(C(N)=O)C(=O)[C@@]3(O)C(O)=C1C2=O [minocycline, reference compound]
[5]
  MIC: 0.5 µg/mL (≈ 1.09 µM)
[6]; [20]
  MIC: 0.06 µg/mL (≈ 0.131 µM)
[7]; [21]
  MIC: 8 µg/mL (≈ 17.5 µM)
[8]
  MIC: 0.03 µg/mL (≈ 0.0656 µM)
[9]; [22]
  MIC: ≤ 0.016 µg/mL
[10]
  MIC: 2 µg/mL (≈ 4.37 µM)
[11]
  MIC: 8 µg/mL (≈ 17.5 µM)
[12]; [23]
  MIC: 16 µg/mL (≈ 35 µM)
